Source: patent publication US20090215884A1, “METHOD FOR WOUND HEALING” (priority 2005, published 2009)

Tests used:
fibroblasts = test: Cytokine production by PEP005-treated human fibroblasts; assay type: cell-based; conditions: 6 h, supernatant
Description: Cytokine production by PEP005-treated human cells Confluent cultures of Me10538 cells, keratinocytes, fibroblasts and neutrophils were incubated for 6 h in the absence or presence of PEP005 (1-100 ng/ml). The supernatants were harvested and analyzed for the presence of the following cytokines; TNF-α, IL-6 and IL-8 using a multiplex detection kit (Biosource International, Nivelles, Belgium). Units of detected proteins are pg/ml.

PBMC = test: Cytokine production of stimulated PBMC (Bead Suspension Assay); assay type: cell-based, human; conditions: 24 h
Description: PEP005 was provided as a dry powder. A stock solution of 23.55 mM was prepared in DMSO and aliquots were stored at −20° C. An aliquot of the stock solution was thawed on the day of use and stored at room temperature prior to and during dosing. Intermediate dilution steps were carried out using DMEM cell culture medium.
For the isolation of PBMC freshly drawn human blood treated with Li-Heparin as an anti-coagulant was used. Cells were diluted with three volumes of CliniMACS PBS/EDTA Buffer (Miltenyi, Bergisch Gladbach), carefully layered over FicollPaque (Amersham Biosciences, Freiburg) in a conical tube and centrifuged at 400×g for 40 minutes at 20° C. in a swinging-bucket rotor without brake. The upper layer was aspirated, leaving the mononuclear cell layer undisturbed at the interphase. The interphase cells (lymphocytes, monocytes and thrombocytes) were carefully transferred into a new conical tube. The conical tube was filled with CliniMACS PBS/EDTA Buffer and centrifuged at 300×g for 10 minutes at 20° C. The supernatant was completely removed. For removal of platelets the cell pellet was resuspended in 50 ml of Buffer and centrifuged at 200×g for 10 minutes at 20° C. The supernatant was completely removed and the last washing step was repeated. Cells were resuspended in DMEMMedium (Invitrogen, Karlsruhe) and counted in a Neubauer-hemocytometer.
For the stimulation of PBMC 250.000 cells per well were seeded in a 96-well plate. PBMC of three different healthy donors were stimulated with PEP005 in three different concentrations (1, 10 and 100 nM) or LPS 1 μg/ml (Linaris, Wertheim-Bettingen), PMA 10 ng/ml (Sigma, Deisenhofen) and Ionomycin 1 μg/ml (Sigma, Deisenhofen), respectively. Cells were incubated at 37° C. and 5% CO^2 in a humidified atmosphere for 24 h.
In a typical Bead Suspension Assay a cytokine is captured from a supernatant with bead bound antibodies. The cytokine is quantified with a secondary antibody to complete a sandwich immunoassay. Cytokine concentrations are calculated with the help of a standard curve for each cytokine.
The cytokines IL-1β, IL-2, IL-6, IL-8 and TNF-α were quantitatively measured in the supernatant of the PBMC with a BioRad BioPlex System according to the manufacturer's intructions. All samples were measured in duplicates. All units of detected proteins are pg/ml.
To investigate the immunostimulating effects of PEP005, PBMCs from three different healthy donors were exposed for 24 h to PEP005 at concentrations of 1, 10 and 100 nM. The secretion of IL-1β, IL-2, IL-6, IL-8 and TNF-α into the supernatant was quantitatively measured by flow cytometry with the Bead Suspension Assays. The results are depicted in Tables 1.4-1.8.

[1] = PBMC donor three, PEP005 100 nM
[2] = PBMCs from the three donors, 1 nM PEP005

Q: Which results are given for `C/C=C(/C)C(=O)O[C@H]1C(C)=C[C@]23C(=O)[C@@H](C=C(CO)[C@@H](O)[C@]12O)[C@H]1[C@@H](C[C@H]3C)C1(C)C` [PEP005, ingenol-3-angelate]?
A: IL-6 (fibroblasts; PEP005 1 ng/ml): 81 ± 4 pg/mL; IL-8 (fibroblasts; PEP005 1 ng/ml): 79 ± 3 pg/mL; IL-6 (fibroblasts; PEP005 5 ng/ml): 85 ± 4 pg/mL; IL-8 (fibroblasts; PEP005 5 ng/ml): 160 ± 14 pg/mL; IL-6 (fibroblasts; PEP005 10 ng/ml): 141 ± 6 pg/mL; IL-8 (fibroblasts; PEP005 10 ng/ml): 215 ± 12 pg/mL; IL-6 (fibroblasts; PEP005 100 ng/ml): 205 ± 5 pg/mL; IL-8 (fibroblasts; PEP005 100 ng/ml): 239 ± 9 pg/mL; elevated IL-6 levels in PBMC supernatant (parenthetical, condition not stated) (PBMC): ~9 fold; IL-1β production (PBMC; PBMC donor one, PEP005 1 nM): 94.49 pg/mL; IL-2 production (PBMC; PBMC donor one, PEP005 1 nM): 82.68 pg/mL; IL-6 production (PBMC; PBMC donor one, PEP005 1 nM): 320.61 pg/mL; IL-8 production (PBMC; PBMC donor one, PEP005 1 nM): 13652.6 pg/mL; TNF-α production (PBMC; PBMC donor one, PEP005 1 nM): 148.42 pg/mL; IL-1β production (PBMC; PBMC donor one, PEP005 10 nM): 61.62 pg/mL; IL-2 production (PBMC; PBMC donor one, PEP005 10 nM): 60.3 pg/mL; IL-6 production (PBMC; PBMC donor one, PEP005 10 nM): 216.09 pg/mL; IL-8 production (PBMC; PBMC donor one, PEP005 10 nM): 9418.94 pg/mL; TNF-α production (PBMC; PBMC donor one, PEP005 10 nM): 76.14 pg/mL; IL-1β production (PBMC; PBMC donor one, PEP005 100 nM): 0 pg/mL; IL-2 production (PBMC; PBMC donor one, PEP005 100 nM): 10.56 pg/mL; IL-6 production (PBMC; PBMC donor one, PEP005 100 nM): 0 pg/mL; IL-8 production (PBMC; PBMC donor one, PEP005 100 nM): 52.77 pg/mL; TNF-α production (PBMC; PBMC donor one, PEP005 100 nM): 19.44 pg/mL; IL-1β production (PBMC; PBMC donor three, PEP005 1 nM): 314.73 pg/mL; IL-2 production (PBMC; PBMC donor three, PEP005 1 nM): 54.61 pg/mL; IL-6 production (PBMC; PBMC donor three, PEP005 1 nM): 131.46 pg/mL; IL-8 production (PBMC; PBMC donor three, PEP005 1 nM): 28029.68 pg/mL; TNF-α production (PBMC; PBMC donor three, PEP005 1 nM): 130.99 pg/mL; IL-1β production (PBMC; PBMC donor three, PEP005 10 nM): 173.33 pg/mL; IL-2 production (PBMC; PBMC donor three, PEP005 10 nM): 31.53 pg/mL; IL-6 production (PBMC; PBMC donor three, PEP005 10 nM): 61.66 pg/mL; IL-8 production (PBMC; PBMC donor three, PEP005 10 nM): 11438.34 pg/mL; TNF-α production (PBMC; PBMC donor three, PEP005 10 nM): 73.48 pg/mL; IL-1β production (PBMC; [1]): 10.92 pg/mL; IL-2 production (PBMC; [1]): 2 pg/mL; IL-6 production (PBMC; [1]): 0 pg/mL; IL-8 production (PBMC; [1]): 205.36 pg/mL; TNF-α production (PBMC; [1]): 12.93 pg/mL; IL-1β production (PBMC; PBMC donor two, PEP005 1 nM): 125.17 pg/mL; IL-2 production (PBMC; PBMC donor two, PEP005 1 nM): 17.86 pg/mL; IL-6 production (PBMC; PBMC donor two, PEP005 1 nM): 69.48 pg/mL; IL-8 production (PBMC; PBMC donor two, PEP005 1 nM): 12148.42 pg/mL; TNF-α production (PBMC; PBMC donor two, PEP005 1 nM): 90.72 pg/mL; IL-1β production (PBMC; PBMC donor two, PEP005 10 nM): 98.04 pg/mL; IL-2 production (PBMC; PBMC donor two, PEP005 10 nM): 19.47 pg/mL; IL-6 production (PBMC; PBMC donor two, PEP005 10 nM): 73.97 pg/mL; IL-8 production (PBMC; PBMC donor two, PEP005 10 nM): 18220.74 pg/mL; TNF-α production (PBMC; PBMC donor two, PEP005 10 nM): 71.6 pg/mL; IL-1β production (PBMC; PBMC donor two, PEP005 100 nM): 11.76 pg/mL; IL-2 production (PBMC; PBMC donor two, PEP005 100 nM): 12.84 pg/mL; IL-6 production (PBMC; PBMC donor two, PEP005 100 nM): 95.43 pg/mL; IL-8 production (PBMC; PBMC donor two, PEP005 100 nM): 217.52 pg/mL; TNF-α production (PBMC; PBMC donor two, PEP005 100 nM): 35.75 pg/mL; increase of IL-2 levels in the supernatant (PBMC; [2]): 20 to 80 fold; mean increase of IL-2 levels in the supernatant (PBMC; [2]): approximately 50 fold; increase of IL-6 levels in PBMC supernatants (PBMC; PEP005 at 1 nM): 4 to 6 fold; increase of IL-8 levels in the supernatant of PBMCs (PBMC; PEP005 at 1 nM): 3- to 5 fold; TNF-α levels in supernatants of PBMCs (PBMC; all three donors, PEP005 at 1 nM): approximately 120 nM
